# Target: T1, horse liver alcohol dehydrogenase (Equus caballus, UniProt P00327)
# T1 construct: 0.5 mL horse liver-alcohol dehydrogenase solution (Sigma-1 mg/mL); purchased Sigma; host or cells: horse liver
# Experiment: Dissolved oxygen decrease on adding alcohol substrates to the cofactor regeneration system (NAD, HL-ADH, acetaldehyde, alcohol oxidase)
# Format: biochemical
# Settings: relative decrease in dissolved oxygen level upon addition of 0.1 mL of 2.5 vol % solution of the alcohol; phosphate buffer pH 8
# Procedure: The following reagents were admixed in a small beaker: • 2.7 mL aerated potassium phosphate buffer (0.05 M; pH 8) • 0.01 mL of NAD solution (10 mg/mL or 0.025 M) • 0.5 mL horse liver-alcohol dehydrogenase solution (Sigma-1 mg/mL) • 0.1 mL of 1 M acetaldehyde • 0.1 mL of saturated alcohol oxidase (~ 10 mg/mL, prepared as described in example I)
# A dissolved oxygen probe, connected to an electronic signal differentiator, was placed in the above prepared solution. The relative decrease in dissolved oxygen level (ADO) was monitored upon addition of 0.1 mL of 2.5 vol % solutions of several alcohols: […]
# T1 sequence (P00327 2-375 limits assumed): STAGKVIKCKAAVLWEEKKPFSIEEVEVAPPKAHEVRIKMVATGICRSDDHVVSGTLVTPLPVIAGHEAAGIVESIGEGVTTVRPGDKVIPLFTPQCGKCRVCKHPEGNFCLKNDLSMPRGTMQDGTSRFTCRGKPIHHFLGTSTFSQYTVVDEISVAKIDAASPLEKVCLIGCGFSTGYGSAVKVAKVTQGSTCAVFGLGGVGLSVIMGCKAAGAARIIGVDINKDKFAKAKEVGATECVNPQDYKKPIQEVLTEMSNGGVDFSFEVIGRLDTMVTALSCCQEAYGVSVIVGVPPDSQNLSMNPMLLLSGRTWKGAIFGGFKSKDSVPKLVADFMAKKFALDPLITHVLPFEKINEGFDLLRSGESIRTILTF
row,SMILES,ΔDO
1,"OCCCCO [1,4-butanediol]",Yes
2,CCC(C)O (stereo not shown) [2-butanol],Yes
3,"OC=CCCO [3-buten-1,4-diol]",Yes
4,C=CC(C)O (stereo not shown) [3-buten-2-ol],Yes
5,C=CCCCCCCCCO [9-decen-1-ol],Yes
6,OC1CCCCC1 [cyclohexanol],Yes
7,CC(C)(C)O [tertiary butanol],No
